Test results from article PMC8615111, “Phenolic Thiazoles with Antioxidant and Antiradical Activity. Synthesis, In Vitro Evaluation, Toxicity, Electrochemical Behavior, Quantum Studies and Antimicrobial Screening” (Antioxidants, 2021).
Like-named read-outs stand apart in the source and are kept apart here.

Legend:
[1] = ABTS˙^+ radical scavenging assay; format: biochemical
Protocol: The assay was based on the decolorization of green (2,2′-azinobis-(3-ethylbenzothiazoline-6-sulfonic acid) ABTS˙^+ to ABTS, on the principle reported by Re et al. and was carried out according to our previously published research.
Later, 1950 µL of ABTS˙^+ reagent was added to all cuvettes and they were shaken for well over 10 min in the dark at room temperature. The absorbance of the resulted solutions found in cuvettes was determined spectrophotometrically at λ = 734 nm. The ABTS scavenging activity of the compounds was calculated using the following Equation (1):(1) ABTS scavenging (%)=control absorbance−sample absorbance/control absorbance×100

[2] = NO˙ radical scavenging assay (Griess reaction); format: biochemical; conditions: 100 µL of test solution 1 mg/mL in DMSO, 150 min, pH 7.4
Protocol: Scavenging of the NO˙ radical was performed according to some adapted protocols reported in the literature, based on the nitroprusside decomposition at physiological pH and colorimetric quantification of the resulted products using the Griess reaction.
Over 200 µL of 10 mM sodium nitroprusside, 100 µL of test solutions (1 mg/mL in DMSO), and 400 µL phosphate-buffered saline (PBS, pH = 7.4) were added. The mixture was then incubated at room temperature for 150 min on a rotating shaker (GFL Gesellschaft für Labortechnik, Burgwedel, Germany). After that, 1 mL of sulfanilic acid 0.33% in 20% acetic acid was added and after 5 min, 1 mL of naphthylethylenediamine […] 0.1% was added to all test tubes. After 30 min, the absorbance of the sample, given by the chromophore (azo dye) formed during the diazotization of nitrite ions resulting from decomposition of sodium nitroprusside with sulfanilic acid and coupled with naphthylethylenediamine, was measured at 546 nm. The NO˙ radical scavenging activity of the tested compounds was calculated using Equation (3):(3) NO˙ scavenging (%)=control absorbance−sample absorbance/control absorbance×100

C. albicans ATCC 102310 = experiment: Antifungal activity, modified microdilution; format: cell-based; conditions: Candida albicans, ATCC102310
Protocol: (§1) For evaluating the antimicrobial activity of the compounds, […] aerobic microbial strains were used: S. aureus ATCC 25923, S. pyogenes ATCC 19615, P. aeruginosa ATCC 27853, S. enterica ISM 83/37, S. typhimurium ATCC 14028, E. coli ATCC 8739, E. coli ATCC 25922, and C. albicans ATCC 102310 obtained from Food Biotechnology Laboratory, Life Sciences Institute, University of Agricultural Sciences, and Veterinary Medicine Cluj Napoca, where the experiment was performed. The antimicrobial activity of the compounds was determined using a modified microdilution technique, and the followed protocol was previously reported.
(§2) The antimicrobial activity of the final compounds, against seven aerobic microbial strains (S. aureus ATCC 25923, S. pyogenes ATCC 19615, P. aeruginosa ATCC 27853, S. enterica ISM 83/37, S. typhimurium ATCC 14028, E. coli ATCC 8739, E. coli ATCC 25922), and a fungal strain (C. albicans ATCC 102310), was determined using a modified microdilution technique.
(§3) The results of the antimicrobial activity evaluation of the compounds, in comparison to norfloxacin and chloramphenicol used as standard antibiotics and fluconazole used as reference antifungal, are depicted in Table 10.

E. coli ATCC 8739 = experiment: Antimicrobial activity, modified microdilution; format: cell-based; conditions: Escherichia coli, ATCC8739
Protocol: as §1, §2, §3

S. enterica ISM 83/37 = experiment: Antimicrobial activity, modified microdilution; format: cell-based; conditions: Salmonella enterica, ISM83/37
Protocol: as §1, §2, §3

P. aeruginosa ATCC 27853 = experiment: Antimicrobial activity, modified microdilution; format: cell-based; conditions: Pseudomonas aeruginosa, ATCC27853
Protocol: as §1, §2, §3

S. aureus ATCC 25923 = experiment: Antimicrobial activity, modified microdilution; format: cell-based; conditions: Staphylococcus aureus, ATCC25923
Protocol: as §1, §2, §3

S. pyogenes ATCC 19615 = experiment: Antimicrobial activity, modified microdilution; format: cell-based; conditions: Streptococcus pyogenes, ATCC19615
Protocol: as §1, §2, §3

E. coli ATCC 25922 = experiment: Antimicrobial activity, modified microdilution; format: cell-based; conditions: Escherichia coli, ATCC25922
Protocol: as §1, §2, §3

[3] = system: S. typhimurium ATCC 14028; experiment: Antimicrobial activity, modified microdilution; format: cell-based; conditions: Salmonella enterica
Protocol: as §1, §2, §3

[4] = DPPH˙ radical scavenging by cyclic voltammetry; conditions: for Ered (V): 2nd Ered column; for Ired (μA): 2nd Ired
Protocol: The antioxidant properties were evaluated in terms of their activity against some free radicals, and other compounds reported in the literature, relevant for this purpose, such as: • ferric ions (Fe^3+)—used to test the reduction of the antioxidant character of the compounds; • DPPH˙ free radical– used to test the scavenging effect of the compounds on this radical; • hydrogen peroxide (H2O2)—used to test the scavenging effect of the synthesized molecules on this compound; • 2,2,6,6-tetramethylpiperidinyl-1-oxy (TEMPO)—used to test the scavenging effect of the synthesized molecules on this compound.
The radical scavenging properties of the novel compounds and the other antioxidants were determined using a stock DPPH˙ radical solution prepared in absolute ethanol. The antioxidant samples were mixed with DPPH˙ solution and HClO4 electrolyte and incubated in the dark for 30 min. The remaining redox activity of DPPH was measured by cycling the potential between −0.7 V and 1.2 V, with a scan rate of 0.1 V/s.
The nitrogen-centered 2-2-diphenyl-1-picrylhydrazyl radical (DPPH˙) based assay is one of the most commonly employed method to evaluate the ability of a compound to scavenge or neutralize free radicals based on the reduction of the radical.
Taking into account the redox activity of DPPH˙, its diminution by an antioxidant can also be followed by CV, which is expected to show changes in the voltammetric peaks. Figure A5 reports the electrochemical study of initial electrooxidation of DPPH˙ and the novel compounds compared to remaining peaks after their incubation for 30 min. The decrease of all the peaks after mixture incubation indicates the partial consumption of DPPH˙.

[5] = compound + DPPH, 30 min, 2nd Eox
[6] = compound + DPPH, 30 min, 3rd Eox column
[7] = compound + DPPH, 30 min, 3rd Iox column
[8] = compound + DPPH, after 30 min of reaction, 1st Eox column
[9] = compound + DPPH, after 30 min of reaction, 1st Iox column

SMILES	% of NO˙ Scavenged [2]	MIC (S. enterica ISM 83/37)	Iox (μA) ([4]; compound + DPPH, 30 min)	Eox (V) [4, 5]	Eox (V) [4, 6]	Iox (μA) [4, 7]	Eox (V) [4, 8]	Iox (μA) [4, 9]	Iox (μA) ([4]; compound alone)	Eox (V) ([4]; compound alone, 2nd Eox)	Ered (V) ([4]; compound alone)	Ired (μA) ([4]; compound alone)	Eox (V) ([4]; compound alone, 3rd Eox column)	Iox (μA) ([4]; compound alone, 3rd Iox column)	Eox (V) ([4]; compound alone, 4th Eox column)	Iox (μA) ([4]; compound alone, 4th Iox column)	other results
C/C(=N\Nc1nc(-c2ccc(O)c(O)c2)cs1)c1ccc(O)cc1O.Cl [Compound 8a, (E)-2-(1-(2,4-dihydroxyphenyl)ethylidene)-1-(4-(3,4-dihydroxyphenyl)thiazol-2-yl)hydrazin-1-ium chloride]	32.72%	> 100 µg/mL	11.18 μA	0.311 V	0.455 V	20.68 μA	0.188 V	11.53 μA	6.97 μA	0.325 V	0.278 V	−18.04 μA	0.459 V	22.39 μA	0.935 V	6.88 μA	% of ABTS˙^+ Scavenged ([1]; 0.5 µg/mL): 25.40%; % of ABTS˙^+ Scavenged ([1]; 0.75 µg/mL): 33.32%; % of ABTS˙^+ Scavenged ([1]; 1 µg/mL): 41.07%; % of ABTS˙^+ Scavenged ([1]; 1.5 µg/mL): 58.72%; % of ABTS˙^+ Scavenged ([1]; 2.5 µg/mL): 90.97%; IC50 ([1]; ABTS˙^+ scavenging): 1.25 µg/mL; MIC (C. albicans ATCC 102310; C. albicans ATCC 102310, read-out: MIC): > 100 µg/mL; MIC (E. coli ATCC 8739; E. coli ATCC 8739, read-out: MIC): > 100 µg/mL; MIC (P. aeruginosa ATCC 27853; P. aeruginosa ATCC 27853, read-out: MIC): 7.8 µg/mL; MIC (S. aureus ATCC 25923; S. aureus ATCC 25923, read-out: MIC): > 100 µg/mL; MIC (S. pyogenes ATCC 19615; S. pyogenes ATCC 19615, read-out: MIC): > 100 µg/mL; MIC (E. coli ATCC 25922; E. coli ATCC 25922, read-out: MIC): > 100 µg/mL; MIC ([3]; S. typhimurium ATCC 14028, read-out: MIC): > 100 µg/mL; Eox (V) ([4]; compound + DPPH, 30 min, 4th Eox column): 0.908 V; Iox (μA) ([4]; compound + DPPH, 30 min, 4th Iox column): 6.39 μA; Eox (V) ([4]; compound alone 0.5 mM in 0.1 M HClO4, 1st Eox column): 0.193 V; Iox (μA) ([4]; compound alone 0.5 mM in 0.1 M HClO4, 1st Iox column): 3.56 μA
C/C(=N\Nc1nc(C)cs1)c1ccc(O)cc1O [Compound 5a, Dihydroxy-Phenyl-Thiazol-Hydrazinium chloride]	36.26%	> 100 µg/mL	13.23 μA	0.362 V	0.572 V	11.81 μA	0.218 V	8.68 μA	43.29 μA	0.339 V	0.137 V	−9.59 μA	0.598 V	20.51 μA	0.987 V	15.5 μA	MIC (C. albicans ATCC 102310): > 100 µg/mL; MIC (E. coli ATCC 8739): > 100 µg/mL; MIC (P. aeruginosa ATCC 27853): 31.2 µg/mL; MIC (S. aureus ATCC 25923): > 100 µg/mL; MIC (S. pyogenes ATCC 19615): > 100 µg/mL; MIC (E. coli ATCC 25922): > 100 µg/mL; MIC [3]: > 100 µg/mL; Ered (V) ([4]; compound + DPPH, 30 min): 0.188 V; Ired (μA) ([4]; compound + DPPH, 30 min): −5.46 μA
